Reference: patent publication US11819503B2 (priority 2019, dated 2023)
Converted amounts (≈) assume the structure as drawn. “And” between values parts separate entries of the source, which are not always exact repeats. Equal values may be shown once. “Also recorded” adds a separate entry of the source.

Columns and labels:
[1] = test system: C. immitis (isolate UTHSCSA DI17-143); test: microbe, parasite or virus in culture; type: cell-based; settings: Coccidioides immitis
[2] = test system: C. immitis; set-up: species or system ICR mice; settings: mouse, in vivo
[3] = test system: C. immitis; set-up: species or system ICR mice; settings: mouse, in vivo; remark: listed apart in the source
[4] = test system: C. immitis; set-up: species or system ICR mice; settings: mouse, in vivo; remark: listed apart in the source
[5] = test system: All Coccidioides isolates (n = 59); test: microbe, parasite or virus in culture; type: cell-based, Coccidioides species; settings: for MIC: read-out: GM MIC
[6] = test system: Coccidioides immitis (n = 21); test: microbe, parasite or virus in culture; type: cell-based; settings: for MIC50 / MIC90 / MIC: Coccidioides immitis; for MIC: read-out: GM MIC
[7] = test system: Coccidioides posadasii (n = 24); test: microbe, parasite or virus in culture; type: cell-based; settings: for MIC50 / MIC90 / MIC: Coccidioides posadasii; for MIC: read-out: GM MIC
[8] = test system: coccidioidomycosis; settings: human, in vivo
[9] = mouse, in vivo, po
[10] = biological target: recombinant human enzyme (dihydroorotate dehydrogenase) (Homo sapiens, UniProt Q02127); settings: cited from earlier work
[11] = test system: dihydroorotate dehydrogenase in yeast, including Candida and Cryptococcus species; settings: cited from earlier work
[12] = in vivo; settings: mouse; for AUC(0-t): AUC 0-12

Sequence of recombinant human enzyme (dihydroorotate dehydrogenase) (Q02127 whole entry): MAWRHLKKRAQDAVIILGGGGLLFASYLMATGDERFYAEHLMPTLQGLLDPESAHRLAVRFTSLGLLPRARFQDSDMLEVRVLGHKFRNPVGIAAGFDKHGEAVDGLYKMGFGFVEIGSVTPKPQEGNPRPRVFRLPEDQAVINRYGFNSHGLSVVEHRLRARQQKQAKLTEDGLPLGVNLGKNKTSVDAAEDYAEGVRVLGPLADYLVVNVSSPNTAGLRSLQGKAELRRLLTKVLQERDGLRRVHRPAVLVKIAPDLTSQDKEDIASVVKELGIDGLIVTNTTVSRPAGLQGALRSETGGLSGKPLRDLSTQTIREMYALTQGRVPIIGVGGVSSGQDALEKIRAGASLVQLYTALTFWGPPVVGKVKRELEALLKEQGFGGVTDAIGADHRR

## OC(Cn1cncn1)(Cn1cncn1)c1ccc(F)cc1F [fluconazole, reference compound]
[1]
  MIC: 16 µg/mL (≈ 52.2 µM)
[2]
  median survival time: 30 days and 28 days
[3]
  brain fungal burden (mean of combined results): 1.33 log 10 CFU/g
[4]
  rebound in fungal burdens once therapy was stopped: rebound in fungal burdens

## C[C@@H](c1ncncc1F)[C@](O)(Cn1cncn1)c1ccc(F)cc1F [voriconazole, reference compound]
[5]
  MIC50: 0.125 µg/mL (≈ 0.358 µM)
  MIC90: 0.25 µg/mL (≈ 0.716 µM)
  MIC: 0.113 µg/mL (≈ 0.323 µM)
[6]
  MIC range: ≤0.03 to 0.25 µg/mL
  MIC50: 0.06 µg/mL (≈ 0.172 µM)
  MIC90: 0.125 µg/mL (≈ 0.358 µM)
  MIC: 0.072 µg/mL (≈ 0.206 µM)
[7]
  MIC range: ≤0.03 to 0.25 µg/mL
  MIC50: 0.125 µg/mL (≈ 0.358 µM)
  MIC90: 0.125 µg/mL (≈ 0.358 µM)
  MIC: 0.103 µg/mL (≈ 0.295 µM)
[1]
  MIC: 0.125 µg/mL (≈ 0.358 µM)

## Cc1cc(-c2ccccc2)c(C(=O)C(=O)Nc2ccc(N3CCN(c4ncc(F)cn4)CC3)cc2)n1C [olorofim, 2-(1,5-dimethyl-3-phenyl-1H-pyrrol-2-yl)-N-(4-(4-(5-fluoropyrimidin-2-yl)piperazin-1-yl)phenyl)-2-oxoacetamide]
[5]
  MIC50: ≤ 0.008 µg/mL
  MIC90: 0.015 µg/mL (≈ 0.0301 µM)
  MIC: 0.011 µg/mL (≈ 0.0221 µM)
[6]
  MIC range: ≤0.008 to 0.015 µg/mL
  MIC50: ≤ 0.008 µg/mL
  MIC90: 0.015 µg/mL (≈ 0.0301 µM)
  MIC: 0.009 µg/mL (≈ 0.0181 µM)
[7]
  MIC range: ≤0.008 to 0.015 µg/mL
  MIC50: ≤ 0.008 µg/mL
  MIC90: 0.015 µg/mL (≈ 0.0301 µM)
  MIC: 0.009 µg/mL (≈ 0.0181 µM)
[1]
  MIC: 0.015 µg/mL (≈ 0.0301 µM)
[2]
  day on which mice began to succumb to infection: 18 days
  median survival time: 22 days and 26 days and 23.5 days and > 30 days
  percentage of mice that survived to the study endpoint: 80%
[3]
  brain fungal burden (mean CFU count): 4.36 log 10 CFU/g and 3.41 log 10 CFU/g
  fungal burdens, three times daily compared to twice daily administration: further reductions in fungal burdens
[4]
  mice with no fungal colonies in plated whole-brain homogenates: 7 of the 10 and 7 of 10
[8]
  clinical status at 3 months: no longer required the use of oxygen and was able to walk unaided
  clinical status at 6 months: continues to be asymptomatic 6 months after initiation of olorofim therapy
  symptomatic response: symptomatic improvements within a few weeks; also recorded: symptomatic improvement within three weeks
  time to symptomatic improvement: ≤ 4 weeks
[9]
  Levels in brain compared with plasma: slightly lower than those in plasma
  Levels in lung compared with plasma: slightly higher
  exposure in females compared with males: slightly higher in females
[10]
  inhibition of dihydroorotate dehydrogenase: little to no inhibition
[11]
  inhibition of dihydroorotate dehydrogenase: little to no inhibition
[12]; both, Plasma Tmax
  Tmax: ≤ 1 h
[12]; female, po, 10 mg/kg
  AUC(0-t): 11400 ng·h/mL
[12]; female, po, 10 mg/kg, Tmax
  Tmax: 1 h
[12]; female, po, 20 mg/kg
  AUC(0-t): 26600 ng·h/mL
  Cmax: 4610 ng/mL
[12]; female, po, 30 mg/kg
  AUC(0-t): 30800 ng·h/mL
  Cmax: 4110 ng/mL
[12]; female, po, 30 mg/kg, Tmax
  Tmax: 1 h
[12]; male, po, 10 mg/kg
  AUC(0-t): 8700 ng·h/mL
[12]; male, po, 10 mg/kg, Tmax
  Tmax: 0.5 h
[12]; male, po, 20 mg/kg
  AUC(0-t): 22100 ng·h/mL
  Cmax: 3910 ng/mL
[12]; male, po, 20 mg/kg, Tmax
  Tmax: 1 h
[12]; male, po, 30 mg/kg
  AUC(0-t): 27700 ng·h/mL
  Cmax: 4110 ng/mL
[12]; male, po, 30 mg/kg, Tmax
  Tmax: 1 h
[12]
  half-life: ~2 h
